# From paper PMC6178282, “Comparative cell biological study of in vitro antitumor and antimetastatic activity on melanoma cells of GnRH-III-containing conjugates modified with short-chain fatty acids” (Beilstein Journal of Organic Chemistry, 2018)
# Key:
# A2058 melanoma cells = assay: Cell cycle analysis, propidium iodide flow cytometry; assay type: cell-based, human; settings: 10^−5 M, 24 h
# Method: Since the conjugates had no or minor apoptotic effect, the cell cycle kinetics of the cells treated with GnRH-III-based conjugates was also investigated to reveal the mechanism of growth inhibition of these conjugates. The distribution of the control and treated cells in the different cell cycle phases was analyzed by measurements of relative DNA contents of individual cells by flow cytometry after propidium iodide (Sigma-Aldrich, St. Louis, MO, USA) staining. […] In parallel, a decrease in the proportions of cells in G1/G0 and G2/M phase and an increase in the percentage of S phase cells were also observed.
# Figure 4 Effects of conjugates and daunorubicin (Dau) on cell cycle progression of A2058 melanoma cells. The model cell was incubated with the compounds at 10^−5 M concentration for 24 h. Results are expressed as a percentage of cells in the sub-G1 area and the major phases (G1/G0, S and G2/M) of the cell cycle. Data shown in the figure represent mathematical averages of two parallel measurements. […]
# Jose, CA, USA) was used to measure the DNA content of cells with propidium iodide (Sigma-Aldrich, St. Louis, MO, USA) intercalated stoichiometrically to the double-stranded […]
# A2058 cells were seeded, treated and harvested in the same way described in section ‘Apoptosis assay’; then, the cells were fixed in ice-cold 70% ethanol and kept at −20 °C for 24 h. The samples were centrifuged and resuspended in RNase (100 μg/ml, Sigma-Aldrich, St. Louis, MO, USA) containing citric acid/sodium phosphate buffer (pH = 7.8). Propidium iodide was added to the sample in 10 μg/ml concentration right before the flow cytometric measurements collecting at 25000 cells/sample.
# Data were analyzed by CellQuest Pro and Flowing 2.5.1 (Turku Centre of Biotechnology, Turku, Finland) software. For aggregate/debris discrimination, FL2-Width vs FL2-Area plot […]
# values to each population of cell cycle stages.
# Measurement of cell adhesion […]
# xCELLigence SP System ( ACEA Biosciences, San Diego, CA, USA).
# The adhesion assay, analogous to the description in [5], was started with a background measurement as mentioned above in the section “Cell proliferation and cytotoxicity measurement”. In the next steps, the compounds were added in the concentration range of 10−8–10−5 M and the cells were loaded into the wells at a concentration of 10^4 cells/well. […]
# NeuroProbe® MBB 96 chamber (NeuroProbe, Gaithersburg, MD, USA) by using polycarbonate filters with pore size 8 μm. To quantify the number of the chemotactically active cells, the alamarBlue-assay was applied as explained above. The ‘Chemotaxis index (Chtx. ind.) plotted in Figure 6 was calculated from the average of 8 parallel measurements and expressed as a percentage of control.
# A2058 cells = assay: Cellular uptake by flow cytometry (Dau fluorescence); assay type: cell-based, human; settings: 10^−5 M, 1, 4 and 6 h, FACSCalibur flow cytometry, mean of 2 parallels
# Method: For investigation and comparison of the cellular uptake of the conjugates, A2058 cells were treated with the conjugates at 10^−5 M concentration for 1, 4 and 6 h. The fluorescence intensity of intracellular Dau built in the conjugates and as the free drug was determined by flow cytometry (FACSCalibur; Becton Dickinson, San Jose, CA, USA).
# Figure 2 Cellular uptake of Dau–GnRH-III conjugates and free daunorubicin (Dau) by A2058 cells. Cellular uptake of the compounds was studied in 10^−5 M concentration. GeoMean (geometric mean channel) value is a dimensionless value and refers to the relative fluorescence intensity. Data shown are mean of 2 parallels ± SD. […]
# To study the cellular uptake of conjugates and Dau as the reference drug, A2058 cells (2 × 10^5 cells/well) were seeded on 12-well plates and cultured for 24 h. […] The measurements of internalized conjugates are based on the fluorescence activity of Dau. For detecting the intracellular fluorescence intensity of the cells, which is proportional with the cellular uptake, FACSCalibur flow cytometer (Becton Dickinson, San Jose, CA, USA) was used by collecting 10000 cells for each measurement. […] CellQuest Pro program (Becton-Dickinson, San Jose, CA, USA) was used for the measurement and the evaluation of relative fluorescence intensity (geometric mean channel – GeoMean values). […]
smiles,measurement,setting,value
COc1cccc2c1C(=O)c1c(O)c3c(c(O)c1C2=O)C[C@@](O)(C(C)=O)C[C@@H]3O[C@H]1C[C@H](N)[C@H](O)[C@H](C)O1 [daunorubicin],percentage of S phase cells,A2058 melanoma cells; compared with control,increase
same,percentage of cells in sub-G1 phase,"A2058 melanoma cells; control 3.4%, average of two parallels",14.1%
same,percentage of cells in G2/M phase,"A2058 melanoma cells; control 34.3%, average of two parallels",decrease
same,percentage of cells in G1/G0 phase,"A2058 melanoma cells; control 47.6%, average of two parallels",decrease
same,"Cellular uptake (GeoMean, relative intracellular fluorescence intensity normalized to control)",A2058 cells,high level of intracellular fluorescence
